Results as given in PubChem BioAssay (NCI).
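All cell lines were grown in 96-well plates and treated with compound for 48 hours. TGI: total growth inhibition.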

Columns and labels:
Assay in all cases: inhibition of tumour cell growth, NCI panel, 48 h
786-0 renal = tested on: 786-0 renal
A498 renal = tested on: A498 renal
A549 NSCLC = tested on: A549 NSCLC
ACHN renal = tested on: ACHN renal
BT-549 breast = tested on: BT-549 breast
CAKI-1 renal = tested on: CAKI-1 renal
CCRF-CEM leukemia = tested on: CCRF-CEM leukemia
COLO 205 colon = tested on: COLO 205 colon
DU-145 prostate = tested on: DU-145 prostate
EKVX NSCLC = tested on: EKVX NSCLC
HCC-2998 colon = tested on: HCC-2998 colon
HCT-116 colon = tested on: HCT-116 colon
HCT-15 colon = tested on: HCT-15 colon
HL-60(TB) leukemia = tested on: HL-60(TB) leukemia
HOP-62 NSCLC = tested on: HOP-62 NSCLC
HOP-92 NSCLC = tested on: HOP-92 NSCLC
HS 578T breast = tested on: HS 578T breast
HT29 colon = tested on: HT29 colon
IGROV1 ovarian = tested on: IGROV1 ovarian
K-562 leukemia = tested on: K-562 leukemia
KM12 colon = tested on: KM12 colon
LOX IMVI melanoma = tested on: LOX IMVI melanoma
M14 melanoma = tested on: M14 melanoma
MALME-3M melanoma = tested on: MALME-3M melanoma
MCF7 breast = tested on: MCF7 breast
MDA-MB-231 breast = tested on: MDA-MB-231 breast
MDA-MB-435 = tested on: MDA-MB-435
MDA-N = tested on: MDA-N
MOLT-4 leukemia = tested on: MOLT-4 leukemia
NCI-H226 lung = tested on: NCI-H226 lung
NCI-H23 lung = tested on: NCI-H23 lung
NCI-H460 lung = tested on: NCI-H460 lung
NCI-H522 lung = tested on: NCI-H522 lung
NCI/ADR-RES ovarian = tested on: NCI/ADR-RES ovarian
OVCAR-3 ovarian = tested on: OVCAR-3 ovarian
OVCAR-4 ovarian = tested on: OVCAR-4 ovarian
OVCAR-5 ovarian = tested on: OVCAR-5 ovarian
OVCAR-8 ovarian = tested on: OVCAR-8 ovarian
PC-3 prostate = tested on: PC-3 prostate
RPMI-8226 leukemia = tested on: RPMI-8226 leukemia
RXF 393 renal = tested on: RXF 393 renal
SF-268 CNS = tested on: SF-268 CNS
SF-295 CNS = tested on: SF-295 CNS
SF-539 CNS = tested on: SF-539 CNS
SK-MEL-2 melanoma = tested on: SK-MEL-2 melanoma
SK-MEL-28 melanoma = tested on: SK-MEL-28 melanoma
SK-MEL-5 melanoma = tested on: SK-MEL-5 melanoma
SK-OV-3 ovarian = tested on: SK-OV-3 ovarian
SN12C renal = tested on: SN12C renal
SNB-19 CNS = tested on: SNB-19 CNS
SNB-75 CNS = tested on: SNB-75 CNS
SR leukemia = tested on: SR leukemia
SW-620 colon = tested on: SW-620 colon
T-47D breast = tested on: T-47D breast
TK-10 renal = tested on: TK-10 renal
U251 CNS = tested on: U251 CNS
UACC-257 melanoma = tested on: UACC-257 melanoma
UACC-62 melanoma = tested on: UACC-62 melanoma
UO-31 renal = tested on: UO-31 renal

`Cn1c(=O)c2[nH]c(CCCCc3nc4ccccc4[nH]3)nc2n(C)c1=O` showed a TGI (786-0 renal) of over 100 µM, a TGI (A498 renal) of over 100 µM and a TGI (A549 NSCLC) of over 100 µM. The TGI (ACHN renal) was over 100 µM, the TGI (BT-549 breast) was over 100 µM and the TGI (CAKI-1 renal) was over 100 µM. For the same compound, the TGI (CCRF-CEM leukemia) was over 100 µM, the TGI (COLO 205 colon) was over 100 µM and the TGI (DU-145 prostate) was over 100 µM. For the same compound, the TGI (EKVX NSCLC) was over 100 µM, the TGI (HCC-2998 colon) was over 100 µM and the TGI (HCT-116 colon) was over 100 µM. The TGI (HCT-15 colon) was over 100 µM, the TGI (HL-60(TB) leukemia) was over 100 µM and the TGI (HOP-62 NSCLC) was over 100 µM. For the same compound, the TGI (HOP-92 NSCLC) was 95.8 µM, the TGI (HS 578T breast) was over 100 µM and the TGI (HT29 colon) was over 100 µM. For the same compound, the TGI (IGROV1 ovarian) was over 100 µM, the TGI (K-562 leukemia) was over 100 µM and the TGI (KM12 colon) was over 100 µM. It also gave a TGI (LOX IMVI melanoma) of over 100 µM, a TGI (M14 melanoma) of over 100 µM and a TGI (MALME-3M melanoma) of over 100 µM. The TGI (MCF7 breast) was over 100 µM, the TGI (MDA-MB-231 breast) was over 100 µM and the TGI (MDA-MB-435) was over 100 µM. It also gave a TGI (MDA-N) of over 100 µM, a TGI (MOLT-4 leukemia) of over 100 µM and a TGI (NCI-H226 lung) of over 100 µM. For the same compound, the TGI (NCI-H23 lung) was over 100 µM, the TGI (NCI-H460 lung) was over 100 µM and the TGI (NCI-H522 lung) was over 100 µM. It also gave a TGI (NCI/ADR-RES ovarian) of over 100 µM, a TGI (OVCAR-3 ovarian) of over 100 µM and a TGI (OVCAR-4 ovarian) of over 100 µM. For the same compound, the TGI (OVCAR-5 ovarian) was over 100 µM, the TGI (OVCAR-8 ovarian) was over 100 µM and the TGI (PC-3 prostate) was over 100 µM. It also gave a TGI (RPMI-8226 leukemia) of over 100 µM, a TGI (RXF 393 renal) of over 100 µM and a TGI (SF-268 CNS) of over 100 µM. It also gave a TGI (SF-295 CNS) of over 100 µM, a TGI (SF-539 CNS) of over 100 µM and a TGI (SK-MEL-2 melanoma) of over 100 µM. It also gave a TGI (SK-MEL-28 melanoma) of over 100 µM, a TGI (SK-MEL-5 melanoma) of over 100 µM and a TGI (SK-OV-3 ovarian) of over 100 µM. The TGI (SN12C renal) was over 100 µM, the TGI (SNB-19 CNS) was over 100 µM and the TGI (SNB-75 CNS) was over 100 µM. The TGI (SR leukemia) was over 100 µM, the TGI (SW-620 colon) was over 100 µM and the TGI (T-47D breast) was over 100 µM. For the same compound, the TGI (TK-10 renal) was over 100 µM, the TGI (U251 CNS) was over 100 µM and the TGI (UACC-257 melanoma) was over 100 µM. The TGI (UACC-62 melanoma) was over 100 µM and the TGI (UO-31 renal) was over 100 µM.
For `COc1ccc(NC2C(=O)C3(C)CCC2C3(C)C)cc1` (stereo not drawn), the TGI (786-0 renal) was over 100 µM, the TGI (A498 renal) was over 100 µM and the TGI (A549 NSCLC) was over 100 µM. The TGI (ACHN renal) was over 100 µM, the TGI (BT-549 breast) was over 100 µM and the TGI (CAKI-1 renal) was over 100 µM. It also gave a TGI (CCRF-CEM leukemia) of over 100 µM, a TGI (COLO 205 colon) of over 100 µM and a TGI (DU-145 prostate) of over 100 µM. It also gave a TGI (EKVX NSCLC) of over 100 µM, a TGI (HCC-2998 colon) of over 100 µM and a TGI (HCT-116 colon) of over 100 µM. The TGI (HCT-15 colon) was over 100 µM, the TGI (HL-60(TB) leukemia) was over 100 µM and the TGI (HOP-62 NSCLC) was over 100 µM. It also gave a TGI (HOP-92 NSCLC) of over 100 µM, a TGI (HS 578T breast) of over 100 µM and a TGI (HT29 colon) of over 100 µM. The TGI (IGROV1 ovarian) was over 100 µM, the TGI (K-562 leukemia) was over 100 µM and the TGI (KM12 colon) was over 100 µM. It also gave a TGI (LOX IMVI melanoma) of over 100 µM, a TGI (M14 melanoma) of over 100 µM and a TGI (MALME-3M melanoma) of over 100 µM. The TGI (MCF7 breast) was over 100 µM, the TGI (MDA-MB-231 breast) was over 100 µM and the TGI (MDA-MB-435) was over 100 µM. It also gave a TGI (MDA-N) of over 100 µM, a TGI (MOLT-4 leukemia) of over 100 µM and a TGI (NCI-H226 lung) of over 100 µM. For the same compound, the TGI (NCI-H23 lung) was over 100 µM, the TGI (NCI-H460 lung) was over 100 µM and the TGI (NCI-H522 lung) was over 100 µM. It also gave a TGI (NCI/ADR-RES ovarian) of over 100 µM, a TGI (OVCAR-3 ovarian) of over 100 µM and a TGI (OVCAR-4 ovarian) of over 100 µM. For the same compound, the TGI (OVCAR-5 ovarian) was over 100 µM, the TGI (OVCAR-8 ovarian) was over 100 µM and the TGI (PC-3 prostate) was over 100 µM. The TGI (RPMI-8226 leukemia) was over 100 µM, the TGI (RXF 393 renal) was over 100 µM and the TGI (SF-268 CNS) was over 100 µM. The TGI (SF-295 CNS) was over 100 µM, the TGI (SF-539 CNS) was over 100 µM and the TGI (SK-MEL-2 melanoma) was over 100 µM. For the same compound, the TGI (SK-MEL-28 melanoma) was over 100 µM, the TGI (SK-MEL-5 melanoma) was 99.8 µM and the TGI (SK-OV-3 ovarian) was over 100 µM. The TGI (SN12C renal) was over 100 µM, the TGI (SNB-19 CNS) was over 100 µM and the TGI (SNB-75 CNS) was over 100 µM. The TGI (SR leukemia) was over 100 µM, the TGI (SW-620 colon) was over 100 µM and the TGI (T-47D breast) was over 100 µM. It also gave a TGI (TK-10 renal) of over 100 µM, a TGI (U251 CNS) of over 100 µM and a TGI (UACC-257 melanoma) of over 100 µM. The TGI (UACC-62 melanoma) was over 100 µM and the TGI (UO-31 renal) was over 100 µM.
